From patent US8981106B2, “Pyrimidinecarboxamides as CXCR2 modulators” (Syntrix Biosystems, Inc., priority 2009, dated 2015)

These compounds were tested against CXCR2 (Homo sapiens (Human), UniProt P25025) (assay: Inhibition of GROα-mediated intracellular calcium release in human neutrophils (FLIPR-3 Ca2+ mobilization)). Conditions: human neutrophils, 25 nM GROα; read-out: IC50.
CXCR2, sequence (P25025 whole entry): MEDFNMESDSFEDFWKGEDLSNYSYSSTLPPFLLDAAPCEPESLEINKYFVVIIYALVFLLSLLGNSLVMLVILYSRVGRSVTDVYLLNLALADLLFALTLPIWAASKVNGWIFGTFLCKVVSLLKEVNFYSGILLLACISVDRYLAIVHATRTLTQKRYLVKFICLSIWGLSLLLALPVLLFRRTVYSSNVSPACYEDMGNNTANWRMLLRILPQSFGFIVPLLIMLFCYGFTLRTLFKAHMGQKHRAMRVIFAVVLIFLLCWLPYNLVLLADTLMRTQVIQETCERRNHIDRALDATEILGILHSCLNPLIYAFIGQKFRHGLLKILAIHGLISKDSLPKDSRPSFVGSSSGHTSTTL
Type: cell-based
Description: In Tables 1-5, the IC50 or EC50 values were determined using the following assay. This assay measures intracellular calcium release via fluorescence as an indication of CXCR2 receptor activation by the physiologic agonist GROα. The assay is a Ca^2+ mobilization assay that measures changes in intracellular Ca^2+ with a FlexStation II scanning fluorometer using a FLIPR-3 Calcium Assay Kit (Molecular Devices, Sunnyvale, Calif.). The procedure is as follows:
1. Human neutrophils were suspended in HBSS^− (without Ca^2+ and Mg^2+) containing 10 mM HEPES and FLIPR Calcium 3 dye (3.1×10^7 cells in total volume 1.7 mL).
2. […] As controls, 2 μL of DMSO (1% final concentration) were added to other 2 tubes.
3. Cells were incubated for 30 min at 37° C.
4. After dye loading, tubes were centrifuged at 6,000 rpm for 1 min, supernatant was removed and cell pellet was re-suspended in 200 μL of HBSS^+ (with Ca^2+ and Mg^2+) containing 10 mM HEPES.
5. The compound or DMSO (control) was added again at the same concentrations that were used during cell loading.
6. The cell suspension was aliquoted into a 96-well Reading Plate (Corning) in a volume of 90 μL (10^5 cells/well). The Compound Plate contained physiologic agonist (GROα in HBSS^−) or HBSS^− (control).
9. The maximum change in fluorescence, expressed in arbitrary units over baseline (Max-Min) was used to determine the GROα response. […] Therapeutic Activity
Briefly, human neutrophils were suspended in HBSS^− (without Ca^2+ and Mg^2+) containing 10 mM HEPES and FLIPR Calcium 3 dye (3.1×10^7 cells in total volume 1.7 mL). […] As controls, 2 μL of DMSO (1% final concentration) were added to 2 other tubes. Cells were incubated for 30 min at 37° C. After dye loading, tubes were centrifuged at 6,000 rpm for 1 min, supernatant was removed and the cell pellet was re-suspended in 200 μL of HBSS^+ (with Ca^2+ and Mg^2+) containing 10 mM HEPES. The test compound or DMSO (control) was added again at the same concentrations that were used during cell loading. The cell suspension was aliquoted into a 96-well Reading Plate (Corning) in a volume of 90 μL (10^5 cells/well). The Compound Plate contained agonist (GROα in HBSS^−) or HBSS^− (control).
The maximum change in fluorescence, expressed in arbitrary units over baseline (Max-Min), was used to determine the GROα response.
Cc1nc(-c2cccc(CSc3ccc(C(=O)Nc4ccc(F)cc4)cn3)c2)cs1 [Compound 37] was tested, and the IC50 was > 5 µM.
With O=C(Nc1ccc(F)cc1)c1ccc(SCc2cccc(-n3cccc3)c2)nc1 [Compound 38] the IC50 was > 10 µM.
O=C(Nc1ccc(F)cc1)c1ccc(SCc2ccc([N+](=O)[O-])cc2)nc1 [Compound 39] was tested, and the IC50 was > 10 µM.
With O=C(Nc1ccc(F)cc1)c1ccc(SCc2cc([N+](=O)[O-])ccc2O)nc1 [Compound 40] the IC50 was > 5 µM.
In the case of O=C(Nc1ccc(F)cc1)c1ccc(SCc2ccc(OC(F)(F)F)cc2)nc1 [Compound 41], the IC50 is reported as > 10 µM.
O=C(Nc1ccc(F)cc1)c1ccc(SCc2cccc(OC(F)(F)F)c2)nc1 [Compound 42] was tested, and the IC50 was > 10 µM.
With O=C(Nc1ccc(F)cc1)c1ccc(SCc2ccncc2)nc1 [Compound 43] the IC50 was > 5 µM.
For Cc1cc(CSc2ccc(C(=O)Nc3ccc(F)cc3)cn2)no1 [Compound 44], the IC50 was > 5 µM.
With Cc1onc(-c2ccccc2)c1CSc1ccc(C(=O)Nc2ccc(F)cc2)cn1 [Compound 45] the IC50 was > 5 µM.
With Cc1noc(-c2ccccc2)c1CSc1ccc(C(=O)Nc2ccc(F)cc2)cn1 [Compound 46] the IC50 was > 10 µM.
Cc1n[nH]c(C)c1CCSc1ccc(C(=O)Nc2ccc(F)cc2)cn1 [Compound 47] was tested, and the IC50 was > 5 µM.
O=C(Nc1ccc(F)cc1)c1ccc(SCc2nn[nH]n2)nc1 [Compound 49] gave an IC50 of 3.9 ± 1.2 µM.
Compound O=C(Nc1ccc(F)cc1)c1ccc(SCc2cccc3c2OCCCO3)nc1 [Compound 50] has an IC50 of 0.35 µM.
With O=C(Nc1ccc(F)cc1)c1ccc(SCC2COc3ccccc3O2)nc1 (centres unmarked) [Compound 51] the IC50 was 0.76 µM.
In the case of O=C(Nc1ccc(F)cc1)c1ccc(SCCOc2cccc3c2OCCO3)nc1 [Compound 52], the IC50 is reported as 1.58 µM.
O=C(Nc1ccc(F)cc1)c1ccc(SCc2cccc3cccnc23)nc1 [Compound 53] was tested, and the IC50 was > 5 µM.
For O=C(Nc1ccc(F)cc1)c1ccc(SCc2nccc3ccccc23)nc1 [Compound 54], the IC50 was > 5 µM.
For Cc1ccc2cc(CSc3ccc(C(=O)Nc4ccc(F)cc4)cn3)ccc2n1 [Compound 55], the IC50 was > 10 µM.
For O=C(Nc1ccc(F)cc1)c1ccc(SCc2ccc3nc(C(F)(F)F)cc(Cl)c3c2)nc1 [Compound 56], the IC50 was > 5 µM.
For Nc1nc(N)c2nc(CSc3ccc(C(=O)Nc4ccc(F)cc4)cn3)cnc2n1 [Compound 57], the IC50 was > 10 µM.
O=C(Nc1ccc(F)cc1)c1ccc(SCCCN2C(=O)c3ccc([N+](=O)[O-])cc3C2=O)nc1 [Compound 58] was tested, and the IC50 was > 5 µM.
O=C(Nc1ccc(F)cc1)c1ccc(SCCCCN2C(=O)c3ccc([N+](=O)[O-])cc3C2=O)nc1 [Compound 59] was tested, and the IC50 was > 10 µM.
O=C(Nc1ccc(F)cc1)c1ccc(SCCCCCCN2C(=O)c3ccc([N+](=O)[O-])cc3C2=O)nc1 [Compound 60] was tested, and the IC50 was > 10 µM.
With O=C(Nc1ccc(F)cc1)c1ccc(SCc2ccc3nsnc3c2)nc1 [Compound 62] the IC50 was > 10 µM.
With O=C(Nc1ccc(F)cc1)c1ccc(SCc2cc3nsnc3cc2Cl)nc1 [Compound 63] the IC50 was > 10 µM.
O=C(Nc1ccc(F)cc1)c1ccc(SCc2cccc3nsnc23)nc1 [Compound 64] was tested, and the IC50 was > 5 µM.
O=C(Nc1ccc(F)cc1)c1ccc(SCc2ccc3nonc3c2)nc1 [Compound 65] gave an IC50 of 0.216 ± 0.066 µM.
O=C(Nc1ccc(F)cc1)c1ccc(SCc2cccc3nonc23)nc1 [Compound 66] was tested, and the IC50 was > 5 µM.
With Cn1c(CSc2ccc(C(=O)Nc3ccc(F)cc3)cn2)nc2ccccc21 [Compound 67] the IC50 was > 10 µM.
With O=C(Nc1ccc(F)cc1)c1ccc(SCc2nc3ccccc3s2)nc1 [Compound 68] the IC50 was > 10 µM.
For O=C(Nc1ccc(F)cc1)c1ccc(SCc2csc3ccc(Cl)cc23)nc1 [Compound 69], the IC50 was > 10 µM.
In the case of Cc1nc(-c2ccccc2)sc1CSc1ccc(C(=O)Nc2ccc(F)cc2)cn1 [Compound 70], the IC50 is reported as 1.21 ± 0.39 µM.
Cc1nc(-c2ccc(C(F)(F)F)cc2)sc1CSc1ccc(C(=O)Nc2ccc(F)cc2)cn1 [Compound 71] was tested, and the IC50 was > 10 µM.
With O=C(Nc1ccc(F)cc1)c1ccc(SCCOc2ccccc2)nc1 [Compound 72] the IC50 was > 10 µM.
In the case of O=C(Nc1ccc(F)cc1)c1ccc(SCc2ccc(C(F)(F)F)o2)nc1 [Compound 74], the IC50 is reported as > 5 µM.
For O=C(Nc1ccc(F)cc1)c1ccc(SCc2ccc([N+](=O)[O-])o2)nc1 [Compound 75], the IC50 was > 5 µM.
O=C(Nc1ccc(F)cc1)c1ccc(SCC2CCCO2)nc1 (centres unmarked) [Compound 76] showed an IC50 of 0.542 ± 0.104 µM.
O=C(Nc1ccc(F)cc1)c1ccc(SCC2CCOCC2)nc1 [Compound 77] was tested, and the IC50 was > 10 µM.
O=C(Nc1ccc(F)cc1)c1ccc(SCC2CCCCO2)nc1 (centres unmarked) [Compound 78] was tested, and the IC50 was > 5 µM.
O=C(Nc1ccc(F)cc1)c1ccc(SCc2cc3ccccc3n2S(=O)(=O)c2ccccc2)nc1 [Compound 79] was tested, and the IC50 was > 5 µM.
In the case of CCOP(=O)(CSc1ccc(C(=O)Nc2ccc(F)cc2)cn1)OCC [Compound 82], the IC50 is reported as > 10 µM.
With O=C(Nc1ccc(F)cc1)c1ccc(SCS(=O)(=O)c2ccccc2)nc1 [Compound 83] the IC50 was > 5 µM.
For O=C(Nc1ccc(F)cc1)c1ccc(SC[N+](=O)[O-])nc1 [Compound 84], the IC50 was > 10 µM.
In the case of Cc1ccc(C(=O)CSc2ccc(C(=O)Nc3ccc(F)cc3)cn2)cc1 [Compound 85], the IC50 is reported as > 10 µM.
With O=C(CSc1ccc(C(=O)Nc2ccc(F)cc2)cn1)c1ccc(C(F)(F)F)cc1 [Compound 86] the IC50 was > 10 µM.
With Cc1ccc(C(=O)CSc2ccc(C(=O)Nc3ccc(F)cc3)cn2)c(C)c1 [Compound 87] the IC50 was > 5 µM.
With O=C(CSc1ccc(C(=O)Nc2ccc(F)cc2)cn1)c1ccc(Br)cc1 [Compound 88] the IC50 was > 10 µM.
O=C(CSc1ccc(C(=O)Nc2ccc(F)cc2)cn1)c1cccc(Br)c1 [Compound 89] was tested, and the IC50 was 0.852 ± 0.292 µM.
In the case of O=C(CSc1ccc(C(=O)Nc2ccc(F)cc2)cn1)c1cccc(Cl)c1 [Compound 90], the IC50 is reported as 0.21 ± 0.19 µM.
O=C(CSc1ccc(C(=O)Nc2ccc(F)cc2)cn1)c1cccc(F)c1 [Compound 91] was tested, and the IC50 was > 10 µM.
In the case of Cc1cc(C(=O)CSc2ccc(C(=O)Nc3ccc(F)cc3)cn2)ccc1Cl [Compound 92], the IC50 is reported as > 5 µM.
O=C(CSc1ccc(C(=O)Nc2ccc(F)cc2)cn1)c1ccc(Cl)c([N+](=O)[O-])c1 [Compound 94] gave an IC50 of 0.016 µM.
In the case of O=C(CSc1ccc(C(=O)Nc2ccc(F)cc2)cn1)c1ccc(F)c(F)c1 [Compound 95], the IC50 is reported as > 5 µM.
With CC(C)(C)c1cc(C(=O)CSc2ccc(C(=O)Nc3ccc(F)cc3)cn2)cc(C(C)(C)C)c1O [Compound 96] the IC50 was > 10 µM.
With CCCCCc1ccc(C(=O)CSc2ccc(C(=O)Nc3ccc(F)cc3)cn2)cc1 [Compound 97] the IC50 was > 10 µM.
In the case of O=C(CSc1ccc(C(=O)Nc2ccc(F)cc2)cn1)c1ccc(-c2cccs2)cc1 [Compound 98], the IC50 is reported as > 10 µM.
In the case of O=C(CSc1ccc(C(=O)Nc2ccc(F)cc2)cn1)c1ccc(N2CCOCC2)cc1 [Compound 99], the IC50 is reported as > 5 µM.
COc1ccc(C(=O)CSc2ccc(C(=O)Nc3ccc(F)cc3)cn2)cc1 [Compound 100] was tested, and the IC50 was > 10 µM.
In the case of N#Cc1ccc(C(=O)CSc2ccc(C(=O)Nc3ccc(F)cc3)cn2)cc1 [Compound 102], the IC50 is reported as > 10 µM.
In the case of N#Cc1cccc(C(=O)CSc2ccc(C(=O)Nc3ccc(F)cc3)cn2)c1 [Compound 103], the IC50 is reported as > 5 µM.
O=C(CSc1ccc(C(=O)Nc2ccc(F)cc2)cn1)c1ccc(-c2nn[nH]n2)cc1 [Compound 104] was tested, and the IC50 was 1.15 ± 0.47 µM.
In the case of CS(=O)(=O)c1ccc(C(=O)CSc2ccc(C(=O)Nc3ccc(F)cc3)cn2)cc1 [Compound 105], the IC50 is reported as > 10 µM.
O=C(CSc1ccc(C(=O)Nc2ccc(F)cc2)cn1)c1ccc(OC(F)(F)F)cc1 [Compound 106] was tested, and the IC50 was > 10 µM.
With O=C(CSc1ccc(C(=O)Nc2ccc(F)cc2)cn1)c1ccc(OC(F)F)cc1 [Compound 107] the IC50 was > 10 µM.
In the case of O=C(Nc1ccc(F)cc1)c1ccc(SCC(=O)c2ccccc2C(F)(F)F)nc1 [Compound 108], the IC50 is reported as > 10 µM.
For O=C(CSc1ccc(C(=O)Nc2ccc(F)cc2)cn1)c1cccc(C(F)(F)F)c1 [Compound 109], the IC50 was > 10 µM.
In the case of O=C(CSc1ccc(C(=O)Nc2ccc(F)cc2)cn1)c1cc(C(F)(F)F)cc(C(F)(F)F)c1 [Compound 110], the IC50 is reported as > 10 µM.
For CC1(C)CCC(C)(C)c2cc(C(=O)CSc3ccc(C(=O)Nc4ccc(F)cc4)cn3)ccc21 [Compound 111], the IC50 was > 5 µM.
CCc1cc2c(cc1C(=O)CSc1ccc(C(=O)Nc3ccc(F)cc3)cn1)C(C)(C)CCC2(C)C [Compound 112] showed an IC50 of 3.69 ± 0.72 µM.

Same assay, conditions: read-out: IC50
O=C(CSc1ccc(C(=O)Nc2ccc(F)cc2)cn1)c1ccc(Cl)c(Cl)c1 [Compound 93] showed an IC50 of 1.85 ± 0.55 µM.
O=C(CSc1ccc(C(=O)Nc2ccc(F)cc2)cn1)c1ccc([N+](=O)[O-])cc1 [Compound 101] was tested, and the IC50 was > 10 µM.
